Experimental data: PubChem BioAssay (NCI)
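Protocol summary: plate cells (96-well), add compound at 5 concentrations, incubate 48 h, interpolate endpoints linearly. Definition used: TGI = concentration required for complete inhibition of growth.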

Legend:
Assay in all cases: inhibition of tumour cell growth, NCI panel, 48 h
NCI-H522 lung = test system: NCI-H522 lung
U251 CNS = test system: U251 CNS
HOP-62 NSCLC = test system: HOP-62 NSCLC
LOX IMVI melanoma = test system: LOX IMVI melanoma
MDA-MB-231 breast = test system: MDA-MB-231 breast
NCI-H23 lung = test system: NCI-H23 lung
SF-295 CNS = test system: SF-295 CNS
TK-10 renal = test system: TK-10 renal
NCI-H226 lung = test system: NCI-H226 lung
SN12C renal = test system: SN12C renal
M14 melanoma = test system: M14 melanoma
SK-MEL-28 melanoma = test system: SK-MEL-28 melanoma
OVCAR-5 ovarian = test system: OVCAR-5 ovarian
COLO 205 colon = test system: COLO 205 colon
HS 578T breast = test system: HS 578T breast
UACC-257 melanoma = test system: UACC-257 melanoma
MCF7 breast = test system: MCF7 breast
MDA-MB-435 = test system: MDA-MB-435
SK-OV-3 ovarian = test system: SK-OV-3 ovarian
EKVX NSCLC = test system: EKVX NSCLC
HCT-15 colon = test system: HCT-15 colon
786-0 renal = test system: 786-0 renal
HCT-116 colon = test system: HCT-116 colon
A498 renal = test system: A498 renal
OVCAR-8 ovarian = test system: OVCAR-8 ovarian
BT-549 breast = test system: BT-549 breast
SF-268 CNS = test system: SF-268 CNS
UO-31 renal = test system: UO-31 renal
KM12 colon = test system: KM12 colon
A549 NSCLC = test system: A549 NSCLC
SK-MEL-2 melanoma = test system: SK-MEL-2 melanoma
ACHN renal = test system: ACHN renal
HOP-92 NSCLC = test system: HOP-92 NSCLC
K-562 leukemia = test system: K-562 leukemia
HCC-2998 colon = test system: HCC-2998 colon
SK-MEL-5 melanoma = test system: SK-MEL-5 melanoma
HT29 colon = test system: HT29 colon
UACC-62 melanoma = test system: UACC-62 melanoma
NCI/ADR-RES ovarian = test system: NCI/ADR-RES ovarian
MDA-N = test system: MDA-N
MOLT-4 leukemia = test system: MOLT-4 leukemia
MALME-3M melanoma = test system: MALME-3M melanoma
SNB-19 CNS = test system: SNB-19 CNS
OVCAR-4 ovarian = test system: OVCAR-4 ovarian
SR leukemia = test system: SR leukemia
T-47D breast = test system: T-47D breast
CAKI-1 renal = test system: CAKI-1 renal
PC-3 prostate = test system: PC-3 prostate
CCRF-CEM leukemia = test system: CCRF-CEM leukemia
SF-539 CNS = test system: SF-539 CNS
NCI-H460 lung = test system: NCI-H460 lung
SW-620 colon = test system: SW-620 colon
SNB-75 CNS = test system: SNB-75 CNS
DU-145 prostate = test system: DU-145 prostate
RXF 393 renal = test system: RXF 393 renal
IGROV1 ovarian = test system: IGROV1 ovarian

Compound: COc1cc(C2S/C(=C/c3ccccc3)C(=O)N2c2cccc([N+](=O)[O-])c2)cc(OC)c1OC (stereo not given)
- TGI (NCI-H522 lung): > 100 µM
- TGI (U251 CNS): > 100 µM
- TGI (HOP-62 NSCLC): > 100 µM
- TGI (LOX IMVI melanoma): > 100 µM
- TGI (MDA-MB-231 breast): > 100 µM
- TGI (NCI-H23 lung): > 100 µM
- TGI (SF-295 CNS): > 100 µM
- TGI (TK-10 renal): > 100 µM
- TGI (NCI-H226 lung): > 100 µM
- TGI (SN12C renal): > 100 µM
- TGI (M14 melanoma): > 100 µM
- TGI (SK-MEL-28 melanoma): > 100 µM
- TGI (OVCAR-5 ovarian): > 100 µM
- TGI (COLO 205 colon): > 100 µM
- TGI (HS 578T breast): > 100 µM
- TGI (UACC-257 melanoma): > 100 µM
- TGI (MCF7 breast): > 100 µM
- TGI (MDA-MB-435): 41.2 µM
- TGI (SK-OV-3 ovarian): > 100 µM
- TGI (EKVX NSCLC): > 100 µM
- TGI (HCT-15 colon): > 100 µM
- TGI (786-0 renal): > 100 µM
- TGI (HCT-116 colon): > 100 µM
- TGI (A498 renal): > 100 µM
- TGI (OVCAR-8 ovarian): > 100 µM
- TGI (BT-549 breast): > 100 µM
- TGI (SF-268 CNS): > 100 µM
- TGI (UO-31 renal): > 100 µM
- TGI (KM12 colon): > 100 µM
- TGI (A549 NSCLC): > 100 µM
- TGI (SK-MEL-2 melanoma): 67.9 µM
- TGI (ACHN renal): > 100 µM
- TGI (HOP-92 NSCLC): > 100 µM
- TGI (K-562 leukemia): > 100 µM
- TGI (HCC-2998 colon): > 100 µM
- TGI (SK-MEL-5 melanoma): > 100 µM
- TGI (HT29 colon): > 100 µM
- TGI (UACC-62 melanoma): > 100 µM
- TGI (NCI/ADR-RES ovarian): > 100 µM
- TGI (MDA-N): 55.7 µM
- TGI (MOLT-4 leukemia): > 100 µM
- TGI (MALME-3M melanoma): > 100 µM
- TGI (SNB-19 CNS): > 100 µM
- TGI (OVCAR-4 ovarian): > 100 µM
- TGI (SR leukemia): > 100 µM
- TGI (T-47D breast): 21.4 µM
- TGI (CAKI-1 renal): > 100 µM
- TGI (PC-3 prostate): > 100 µM

Compound: N#Cc1c(N2CCN(c3ccc([N+](=O)[O-])cc3)CC2)[n+](=O)c2ccc(Cl)cc2n1[O-]
- TGI (NCI-H522 lung): 2.36 µM
- TGI (U251 CNS): 5.81 µM
- TGI (LOX IMVI melanoma): 1.15 µM
- TGI (NCI-H23 lung): 3.96 µM
- TGI (SF-295 CNS): > 28.3 µM
- TGI (TK-10 renal): 8.86 µM
- TGI (CCRF-CEM leukemia): 4.2 µM
- TGI (NCI-H226 lung): 13.8 µM
- TGI (SN12C renal): 3.05 µM
- TGI (M14 melanoma): > 23.4 µM
- TGI (SK-MEL-28 melanoma): > 39.2 µM
- TGI (SF-539 CNS): 4.37 µM
- TGI (OVCAR-5 ovarian): 29.1 µM
- TGI (HS 578T breast): > 100 µM
- TGI (UACC-257 melanoma): 8.21 µM
- TGI (MCF7 breast): > 33.3 µM
- TGI (MDA-MB-435): 8.07 µM
- TGI (SK-OV-3 ovarian): > 23.9 µM
- TGI (EKVX NSCLC): 10.8 µM
- TGI (HCT-15 colon): 2.17 µM
- TGI (786-0 renal): 4.58 µM
- TGI (A498 renal): 2.44 µM
- TGI (OVCAR-8 ovarian): > 22.9 µM
- TGI (NCI-H460 lung): 3.7 µM
- TGI (BT-549 breast): 1.61 µM
- TGI (SW-620 colon): 1.81 µM
- TGI (SNB-75 CNS): > 27.9 µM
- TGI (SF-268 CNS): 10.9 µM
- TGI (UO-31 renal): 5.75 µM
- TGI (KM12 colon): 13.3 µM
- TGI (A549 NSCLC): > 24.4 µM
- TGI (SK-MEL-2 melanoma): 8.54 µM
- TGI (DU-145 prostate): 6.7 µM
- TGI (ACHN renal): 2.24 µM
- TGI (RXF 393 renal): > 22.7 µM
- TGI (K-562 leukemia): > 100 µM
- TGI (HCC-2998 colon): 4.4 µM
- TGI (HT29 colon): 7.31 µM
- TGI (NCI/ADR-RES ovarian): 7.85 µM
- TGI (MDA-N): > 26.1 µM
- TGI (MOLT-4 leukemia): 8.52 µM
- TGI (MALME-3M melanoma): 6.31 µM
- TGI (SNB-19 CNS): > 32.8 µM
- TGI (OVCAR-4 ovarian): 9.52 µM
- TGI (IGROV1 ovarian): 2.01 µM
- TGI (CAKI-1 renal): 2.7 µM
- TGI (PC-3 prostate): > 36.2 µM
